How the values were obtained:
aortic rings = test: Cold ischaemic storage of aortic rings in UW solutions followed by myograph reoxygenation; parameters: species or system Wistar rats; conditions: for endothelium-dependent relaxation (ACh) vs GSH-free UW: GSH 3 mM, GSHMEE 3 mM
Experimental: Animal care and experimental protocols were performed in accordance with the Home Office Guidance in the Operation of Animals (Scientific Procedures) Act 1986, UK. Adult male Wistar rats weighing 300-450 g were kept in a temperature-controlled environment with a 12 h light-dark cycle, and allowed free access to water and standard diet. University of Wisconsin solution was prepared according to standard protocol: Potassium lactobionate 100 mM, KH2PO4 25 mM, MgSO4 5 mM, raffinose 30 mM, adenosine 5 mM, allopurinol 1 mM, dexamethasone 16 mg/L, insulin 40 U/L, penicillin 200 000 U/L and EDTA 0.03 mM at pH 7.4. The EDTA was added in order to help protect GSNO against metal-ion catalysed decomposition. The solution was bubbled with argon gas for 1 hour to mimic hypoxia. Oxygen levels were confirmed using an oxygen electrode (Apollo 4000 integrated free radical analyser, World Precision Instruments Inc. USA). Bubbling for 30 minutes depleted >90% of oxygen in solution. Following cervical dislocation, laparotomy was performed and the aorta dissected with clearance of periaortic fat and connective tissue. Vessels were divided into 3-5 mm aortic rings with care taken not to stretch or damage the vessels. Aortic rings were subjected to cold ischaemic storage (4° C. for 1 or 48 hours) in sealed containers filled with hypoxic control (UW without GSH) solution; UW with GSH (3 mM); UW with glutathione monoethyl ester ([…]; 3 mM) or UW with S-nitrosated glutathione (GSNO; 100 μM). After storage, aortic rings were suspended between two stainless steel supports in a myograph (700MO, Danish Myo, Aarhus, Denmark) and reoxygenated in 10 ml organ baths containing Krebs buffer solution (mM): […] Resting tensions of 1.5 g were applied to all rings prior to equilibration (30 minutes). Following equilibration, all vessels were exposed to Krebs buffer containing a high concentration of potassium (60 mM) three times to assess tissue viability and to provide a reference maximum contraction for subsequent data analysis. Each response was followed by a washout. A concentration-response curve to the α1 adrenoceptor agonist, L-phenylephrine (PE; 10^-8M-3×10^-5M) was then constructed and used to identify the concentration of PE required to generate 80% maximal contraction (EC80) for subsequent vasodilator studies. Upon establishing stable contractions, cumulative concentration-response curves to the endothelium-dependent vasodilator, acetylcholine (ACh; 10^-9-10^-5M) were constructed in all preparations. Only one concentration-response curve was obtained per tissue. A further submaximal PE contraction was elicited and the NO synthase inhibitor, N^ω-nitro-L-arginine methyl ester (L-NAME) was applied to inhibit endogenous NO production and to determine the vasodilatory effect of endothelium-derived NO under basal (unstimulated) conditions. Subsequently, the NO scavenger, carboxy-PTIO (cPTIO; 1 mM), was added in order to establish the contribution of NOS-independent NO to any vasodilator tone existing under basal conditions.

[1] = system: Human umbilical vein endothelial cells (HUVEC); test: Endothelial cell viability assay (trypan blue exclusion); conditions: for HUVEC cell viability vs control: 37° C., absence of any oxidants (unstressed); for HUVEC cell viability vs control / HUVEC cell survival in the presence of menadione: supplemented UW
Experimental: Human umbilical vein endothelial cells (HUVEC) were seeded in 162 ml flasks (Dulbecco's modified Eagle's medium 37° C., 5% CO2). Cells were cultured to confluence and transferred to 6-well culture dishes containing phosphate buffered saline (control), UW without GSH, UW+GSH (3 mM), UW+GSH-MEE (3 mM) or UW+GSNO for 24 h (37° C.) in the absence of any oxidants or in the presence of a hydroxyl radical generator (menadione; 10 μM), the superoxide generating system, xanthine+xanthine oxidase (5 μM; 1 mU/ml) or the oxidant species H2O2 (100 μM). Cell viability after 24 h incubations was assessed using a standard trypan blue exclusion assay.

[2] = Decomposition of GSNO in storage, absorbance at 339 nm; type: physicochemical
Experimental: The freezing point for DMSO is ˜15° C., so these samples were effectively “frozen” for the duration of the experiment, perhaps contributing to the stability of GSNO under these conditions. The apparent depression of absorbance at time zero in the DMSO sample is most likely attributable to incomplete dissolution of the material when the first measurement was taken.

[3] = after 48 h cold ischaemia, GSNO 100 μM

Compound: N[C@@H](CCC(=O)N[C@@H](CS)C(=O)NCC(=O)O)C(=O)O [GSH, Glutathione]
- endothelium-dependent relaxation (ACh) vs GSH-free UW (aortic rings; [3]): significantly poorer endothelium-dependent relaxation
- HUVEC cell viability vs control ([1]; 24 h): significantly reduced viability
- HUVEC cell survival in the presence of menadione ([1]; 24 h, menadione 10 μM): significantly enhanced cell survival

Compound: CCOC(=O)CNC(=O)[C@H](CS)NC(=O)CC[C@H](N)C(=O)O [GSH-MEE, glutathione monoethyl ester]
- contraction on addition of L-NAME to precontracted tissues vs standard UW (aortic rings; after 48 h cold ischaemia): significantly lesser contraction
- endothelium-dependent relaxation (ACh) vs GSH-free UW (aortic rings; [3]): no significant difference
- HUVEC cell viability vs control ([1]; 24 h): significantly reduced viability
- HUVEC cell survival in the presence of menadione ([1]; 24 h, menadione 10 μM): significantly enhanced cell survival

Compound: N[C@@H](CCC(=O)N[C@@H](CSN=O)C(=O)NCC(=O)O)C(=O)O [GSNO, S-nitrosoglutathione]
- contraction on further addition of NO scavenger cPTIO vs standard UW (aortic rings; after 1 h cold ischaemia): significantly greater contraction
- contraction on addition of L-NAME to precontracted tissues vs standard UW (aortic rings; after 48 h cold ischaemia): significantly lesser contraction
- contraction on further addition of cPTIO vs standard UW (aortic rings; after 48 h cold ischaemia): significantly greater contraction
- endothelium-dependent relaxation (ACh) vs GSH-free UW (aortic rings; [3]): no significant difference
- maximal contractions to PE vs GSH-free UW (aortic rings; [3]): significantly depressed maximal contractions
- half-life at 100 µM ([2]; modified UW solution, modified UW (containing EDTA but excluding GSH), refrigerator in the dark at 4-6° C.): ~6 days
- decomposition of GSNO in 100% DMSO ([2]; same time period, dark, 4-6° C., samples effectively frozen): did not show any significant decomposition
- HUVEC cell viability vs control ([1]; 24 h): not significantly different from control
- HUVEC cell survival in the presence of menadione ([1]; 24 h, menadione 10 μM): ineffective

Compound: OO [H2O2]
- effect of oxidant on HUVEC cell survival ([1]; 24 h, X/XO 5 μM, 1 mU/ml, H2O2 100 μM): substantial cell death

Compound: CC1=CC(=O)c2ccccc2C1=O [menadione]
- cells surviving oxidant treatment under control conditions ([1]; 24 hr treatment, menadione 10 μM): less than 5%

From patent publication US9131677B2, “Organ preservation solution” (University Court of the University of Edinburgh, priority 2006, dated 2015)
